According to ChEMBL document CHEMBL1135641, “Antitumor agents. 217. Curcumin analogues as novel androgen receptor antagonists with potential as anti-prostate cancer agents” (J Med Chem, 2002):

Experiments:
[1] = target: T1, Androgen receptor (Homo sapiens) (UniProt P10275); test: Antagonistic activity against Androgen receptor in DU-145 human prostate cancer cells; assay type: functional, cell-based
T1 sequence (whole entry): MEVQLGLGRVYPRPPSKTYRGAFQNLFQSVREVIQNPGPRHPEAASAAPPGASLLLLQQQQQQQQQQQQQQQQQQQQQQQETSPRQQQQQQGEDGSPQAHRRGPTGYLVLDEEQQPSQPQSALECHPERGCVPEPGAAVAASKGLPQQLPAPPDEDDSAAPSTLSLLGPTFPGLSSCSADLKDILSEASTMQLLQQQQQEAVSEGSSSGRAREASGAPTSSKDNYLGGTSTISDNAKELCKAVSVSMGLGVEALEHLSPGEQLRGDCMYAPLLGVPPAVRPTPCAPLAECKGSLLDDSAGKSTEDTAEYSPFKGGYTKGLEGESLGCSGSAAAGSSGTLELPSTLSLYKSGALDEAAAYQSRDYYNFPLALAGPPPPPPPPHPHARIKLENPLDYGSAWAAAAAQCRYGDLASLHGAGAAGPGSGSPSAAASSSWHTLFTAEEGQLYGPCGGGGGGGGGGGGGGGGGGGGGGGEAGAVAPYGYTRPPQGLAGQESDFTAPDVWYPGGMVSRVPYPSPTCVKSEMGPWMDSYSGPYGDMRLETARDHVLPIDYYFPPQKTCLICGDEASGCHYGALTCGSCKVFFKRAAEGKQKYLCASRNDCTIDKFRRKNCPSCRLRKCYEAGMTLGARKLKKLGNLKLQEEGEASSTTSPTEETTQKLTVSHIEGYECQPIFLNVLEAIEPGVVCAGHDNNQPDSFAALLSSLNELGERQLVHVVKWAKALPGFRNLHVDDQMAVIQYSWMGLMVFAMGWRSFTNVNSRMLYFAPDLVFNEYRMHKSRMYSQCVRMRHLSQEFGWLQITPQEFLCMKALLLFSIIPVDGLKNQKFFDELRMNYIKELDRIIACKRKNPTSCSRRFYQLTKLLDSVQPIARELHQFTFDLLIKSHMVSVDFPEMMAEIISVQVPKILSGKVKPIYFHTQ

[2] = target: T1, Androgen receptor (Homo sapiens); test: Reduction in DHT-induced Androgen receptor activity
[3] = target: T1, Androgen receptor (Homo sapiens); test: Antagonistic activity against Androgen receptor in PC-3 human prostate cancer cells; assay type: functional, cell-based

| Reduction [1] | Reduction [2] | Reduction [3] | Structure (SMILES) |
| --- | --- | --- | --- |
| 53.8% |  |  | CCOC(O)=C(C(=O)/C=C/c1ccc(O)c(OC)c1)C(=O)/C=C/c1ccc(O)c(OC)c1 |
| 54% |  |  | COC(=O)COc1ccc(/C=C/C(=O)/C=C(O)/C=C/c2ccc(OCC(=O)OC)c(OC)c2)cc1OC |
|  | 18% |  | COc1ccc(CCC(=O)CC(O)CCc2ccc(OC)c(OC)c2)cc1OC (stereo unspecified) |
| 45% |  | 70% | COc1ccc(/C=C/C(=O)/C=C(O)/C=C/c2ccc(OC)c(OC)c2)cc1OC |
|  | 18% |  | COc1ccc(CCC(=O)CC(=O)CCc2ccc(OC)c(OC)c2)cc1OC |
